In US20070207121A1, “Methods of Using and Compositions Comprising Selective Cytokine Inhibitory Drugs for Treatment and Management of Macular Degeneration” (priority 2003, published 2007):

How the values were obtained:
[1] = test system: patients with macular degeneration; assay: Clinical study in patients with macular degeneration, adjuvant to photodynamic therapy with verteporfin; assay type: in vivo, human; details: about 20 mg/day as adjuvant for 20 weeks with verteporfin photodynamic therapy
Procedure: Selective cytokine inhibitory drugs of the invention are administered in an amount of about 20 to about 1,200 mg per day to patients with macular degeneration. In a specific embodiment, clinical studies are performed with forty patients with macular degeneration, who are divided into two groups. The first group receives conventional treatment for closing the leaking choroidal vessels (characteristic of this disease) by photodynamic therapy with verteporfin. Opthalmol 1999 (117): 1329-1345. The second group receives the same conventional therapy with verteporfin and (+)-2-[1-(3-ethoxy-4 methoxyphenyl)-2-methylsulfonylethyl]-4 acetylaminoisoindoline 1,3-dione in an amount of about 20 mg/day as an adjuvant for 20 weeks.
However, the first group without (+)-2-[1-(3-ethoxy-4 methoxyphenyl)-2-methylsulfonylethyl]-4-acetylaminoisoindoline 1,3-dione experiences progressive reperfusion of the ablated vessels several weeks after treatment. Progressive visual loss follows which requires the photodynamic therapy to be repeated.

TNF-α production = assay: Inhibition of TNF-α production following LPS-stimulation of human PBMC and human whole blood (in vitro pharmacology studies); assay type: cell-based; details: more potent than thalidomide
Source text: One of the biological effects typically exerted by selective cytokine inhibitory drugs is the reduction of synthesis of TNF-α Specific selective cytokine inhibitory drugs enhance the degradation of TNF-αmRNA. TNF-α may play a pathological role in macular degeneration.
In a specific embodiment, the pharmacological properties of 3-(3,4-dimethoxy-phenyl)-3-(1-oxo-1,3-dihydro-isoindol-2-yl)-propionamide are characterized in in vitro studies. Studies examine the effects of the compound on the production of various cytokines. Inhibition of TNF-α production following LPS-stimulation of human PBMC and human whole blood by the compound is investigated in vitro. […] The pharmacological effects of 3-(3,4-dimethoxy-phenyl)-3-(1-oxo-1,3-dihydro-isoindol-2-yl)-propionamide may derive from its action as an inhibitor of the generation of inflammatory cytokines.

laser-induced CNVM = details: intravitreal injection, monkeys; cited from earlier work
patients with MD = details: intravitreal injection, over a one-year period; cited from earlier work
MD = details: cited from earlier work

## CCOc1cc(C(CS(C)(=O)=O)N2C(=O)c3cccc(NC(C)=O)c3C2=O)ccc1OC (single isomer, unassigned; (+)) [(+)-2-[1-(3-ethoxy-4 methoxyphenyl)-2-methylsulfonylethyl]-4 acetylaminoisoindoline 1,3-dione]
[1]
  effects of the photodynamic therapy: indefinitely prolong
  neovascular cascade: sufficiently hindered

## COc1ccc(C(CC(N)=O)N2Cc3ccccc3C2=O)cc1OC (stereo not shown) [3-(3,4-dimethoxy-phenyl)-3-(1-oxo-1,3-dihydro-isoindol-2-yl)-propionamide]
TNF-α production
  pharmacological activity profile, potency relative to thalidomide: five to fifty

## C[C@]12C=CC(=O)C=C1CC[C@H]1[C@@H]3C[C@@H](O)[C@](O)(C(=O)CO)[C@@]3(C)C[C@H](O)[C@@]12F [triamcinolone]
laser-induced CNVM
  growth of laser-induced CNVM: inhibits
Patients with MD
  prevention of severe visual loss: fails to prevent severe visual loss

## interferon-α
MD; clinical trial
  efficacy at treating MD: ineffective
MD; in vivo
  adverse effects: high rate of adverse effects
